Reference: patent US8563540B2, “Pyrido[3,2-d]pyrimidine PI3K delta inhibitor compounds and methods of use” (Genetech, Inc., priority 2010, dated 2013)

Columns and labels:
p110 delta = target: T1, p110 delta (Homo sapiens, UniProt O00329); assay: PI3K Isoform Inhibition Assay, p110 delta; format: biochemical; details: PI3K isoform inhibition assay of Example 901
T1 construct: purchased Upstate Group, Millipore; Dundee, UK
Experimental: (§1) PI3K enzymatic activity was assayed by measuring the amount of product phosphatidylinositol […] (PIP3) formed from substrate 4,5 phosphatidylinositol 4,5-phosphate (PIP2) using a fluorescence polarization displacement assay. The decrease in fluorescence polarization of a fluorescent PIP3 probe is measured as it is displaced from a PIP3-binding protein GRP-1 detector by PI3K-catalyzed product. […] The kinase reactions were initiated by the addition of 40 ng/mL p110α/p85α, 300 ng/mL p110β/p85α, 40 ng/mL p110γ, or 40 ng/mL […] (Upstate Group, Millipore; Dundee, UK), and 10 μM PIP2 (Echelon Biosciences) to the wells. […] After 60 minutes of incubation at room temperature to allow equilibration of labeled and unlabeled PIP3 binding, the parallel and perpendicular components of the fluorescence emissions from each sample were measured at an excitation wavelength of 530 nm and an emission wavelength of 590 nm using an Envision fluorescent plate reader with a rhodamine filter (PerkinElmer Life and Analytical Sciences; Wellesley, Mass.). The assay is capable of detecting 0.1-2.0 μM PIP3 product. The IC50 values were obtained by fitting the dose-dependent inhibition data to a 4-parameter equation using Assay Explorer software (MDL, San Ramon, Calif.).
(§2) The Formula I compound was serially diluted in 100% DMSO. The kinase reaction was incubated for 1 h at room temperature, and the reaction was terminated by the addition of PBS. IC50 values were subsequently determined using sigmoidal dose-response curve fit (variable slope).
The four Class I PI 3-kinases are cloned into baculovirus vectors as follows: […]

p110 alpha = target: T2, p110 alpha (Homo sapiens, UniProt P42336); assay: PI3K Isoform Inhibition Assay, p110 alpha (delta/alpha selectivity); details: ratio of biochemical IC50 values
T2 construct: purchased Upstate Group, Millipore; Dundee, UK
Experimental: as §1, §2
The same protocol may be used to establish IC50 values for p110α (alpha) PI3K binding. […]

T2 sequence (P42336 whole entry, canonical isoform): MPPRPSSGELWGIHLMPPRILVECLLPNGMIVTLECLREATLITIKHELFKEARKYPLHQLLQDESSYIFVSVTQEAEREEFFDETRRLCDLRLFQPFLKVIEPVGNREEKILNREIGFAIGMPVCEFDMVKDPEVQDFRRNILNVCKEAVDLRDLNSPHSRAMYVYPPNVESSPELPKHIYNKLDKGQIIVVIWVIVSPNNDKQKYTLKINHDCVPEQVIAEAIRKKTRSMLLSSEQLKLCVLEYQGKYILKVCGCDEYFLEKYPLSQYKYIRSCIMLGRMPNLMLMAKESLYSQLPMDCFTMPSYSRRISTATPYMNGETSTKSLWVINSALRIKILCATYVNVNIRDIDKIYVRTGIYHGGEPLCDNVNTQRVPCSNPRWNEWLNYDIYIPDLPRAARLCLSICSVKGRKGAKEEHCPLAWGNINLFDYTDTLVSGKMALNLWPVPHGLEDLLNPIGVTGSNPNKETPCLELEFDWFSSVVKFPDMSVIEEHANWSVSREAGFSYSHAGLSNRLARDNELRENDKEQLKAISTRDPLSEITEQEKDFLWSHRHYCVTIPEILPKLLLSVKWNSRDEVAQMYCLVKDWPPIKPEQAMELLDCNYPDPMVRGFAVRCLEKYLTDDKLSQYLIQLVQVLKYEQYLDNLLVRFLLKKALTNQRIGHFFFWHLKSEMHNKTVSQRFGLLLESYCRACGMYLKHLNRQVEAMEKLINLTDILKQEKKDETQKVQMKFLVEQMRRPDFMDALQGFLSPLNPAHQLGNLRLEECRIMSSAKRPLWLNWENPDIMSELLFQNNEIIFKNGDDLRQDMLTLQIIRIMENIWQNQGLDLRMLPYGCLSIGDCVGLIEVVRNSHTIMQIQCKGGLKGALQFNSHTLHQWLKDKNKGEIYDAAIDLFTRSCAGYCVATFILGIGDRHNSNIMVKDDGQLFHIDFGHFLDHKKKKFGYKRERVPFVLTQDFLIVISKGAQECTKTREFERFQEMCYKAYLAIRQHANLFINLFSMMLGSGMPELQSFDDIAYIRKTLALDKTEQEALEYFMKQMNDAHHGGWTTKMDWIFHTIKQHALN
T2 sequence (P27986 whole entry partner, canonical isoform): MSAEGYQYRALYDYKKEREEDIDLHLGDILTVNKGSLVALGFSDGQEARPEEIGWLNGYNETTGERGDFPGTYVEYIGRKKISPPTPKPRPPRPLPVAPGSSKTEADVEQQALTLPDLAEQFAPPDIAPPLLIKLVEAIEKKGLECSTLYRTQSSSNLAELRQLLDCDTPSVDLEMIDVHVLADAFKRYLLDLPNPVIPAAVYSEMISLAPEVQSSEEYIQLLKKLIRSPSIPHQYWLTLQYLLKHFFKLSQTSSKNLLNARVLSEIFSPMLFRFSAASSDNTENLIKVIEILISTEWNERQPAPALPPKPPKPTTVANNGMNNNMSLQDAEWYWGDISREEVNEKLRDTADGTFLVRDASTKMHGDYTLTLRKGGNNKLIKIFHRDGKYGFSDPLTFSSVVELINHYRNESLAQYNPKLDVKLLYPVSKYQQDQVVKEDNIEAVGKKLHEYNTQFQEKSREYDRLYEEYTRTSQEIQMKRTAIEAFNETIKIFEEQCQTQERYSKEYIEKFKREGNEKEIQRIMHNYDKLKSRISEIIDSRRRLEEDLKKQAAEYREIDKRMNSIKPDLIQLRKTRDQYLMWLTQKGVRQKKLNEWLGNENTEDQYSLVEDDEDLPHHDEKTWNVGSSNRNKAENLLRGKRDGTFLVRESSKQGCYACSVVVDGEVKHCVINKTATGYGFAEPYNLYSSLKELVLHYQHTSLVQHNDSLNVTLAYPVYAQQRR
T1 sequence (O00329 whole entry, canonical isoform): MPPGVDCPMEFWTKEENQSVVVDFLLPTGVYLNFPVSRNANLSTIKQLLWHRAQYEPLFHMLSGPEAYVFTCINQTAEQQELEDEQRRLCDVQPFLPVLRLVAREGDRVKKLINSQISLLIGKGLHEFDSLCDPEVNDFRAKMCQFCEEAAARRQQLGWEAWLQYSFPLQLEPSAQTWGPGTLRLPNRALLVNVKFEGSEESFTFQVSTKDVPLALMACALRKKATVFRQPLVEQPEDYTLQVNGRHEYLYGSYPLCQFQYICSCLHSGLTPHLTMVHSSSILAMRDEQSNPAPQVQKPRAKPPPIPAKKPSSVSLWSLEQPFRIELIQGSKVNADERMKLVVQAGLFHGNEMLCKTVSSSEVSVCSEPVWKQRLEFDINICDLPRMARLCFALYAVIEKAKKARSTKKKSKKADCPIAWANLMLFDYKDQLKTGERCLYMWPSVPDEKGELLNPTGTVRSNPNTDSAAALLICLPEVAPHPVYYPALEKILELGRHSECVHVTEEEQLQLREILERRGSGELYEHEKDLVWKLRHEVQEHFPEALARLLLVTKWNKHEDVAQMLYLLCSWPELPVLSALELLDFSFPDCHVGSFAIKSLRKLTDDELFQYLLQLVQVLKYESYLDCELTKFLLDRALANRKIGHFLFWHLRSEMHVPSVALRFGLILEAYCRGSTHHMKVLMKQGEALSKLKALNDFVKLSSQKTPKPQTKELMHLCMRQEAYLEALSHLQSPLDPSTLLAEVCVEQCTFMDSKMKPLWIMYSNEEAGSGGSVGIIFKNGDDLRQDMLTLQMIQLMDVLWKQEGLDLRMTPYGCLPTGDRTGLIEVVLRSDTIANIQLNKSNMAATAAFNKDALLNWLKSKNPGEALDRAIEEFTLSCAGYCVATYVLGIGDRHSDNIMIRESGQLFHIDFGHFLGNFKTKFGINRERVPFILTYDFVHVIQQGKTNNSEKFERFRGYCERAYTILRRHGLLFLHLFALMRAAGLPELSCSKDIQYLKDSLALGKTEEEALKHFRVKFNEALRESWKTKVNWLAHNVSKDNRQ
T1 sequence (P27986 whole entry partner, canonical isoform): as the sequence (P27986 whole entry partner, canonical isoform) above

Compound | IC50 (p110 delta) | IC50 p110 alpha/IC50 p110 delta (p110 alpha)
Cc1nc2ccccc2n1-c1nc(N2CCOCC2)c2nc(CN3CCC(C(C)(C)O)CC3)ccc2n1 [Compound 101, 2-(1-((2-(2-methyl-1H-benzo[d]imidazol-1-yl)-4-morpholinopyrido[3,2-d]pyrimidin-6-yl)methyl)piperidin-4-yl)propan-2-ol] | 12.5 nM | 33
CC(C)(O)C1CCN(Cc2ccc3nc(-n4c(C5CC5)nc5ccccc54)nc(N4CCOCC4)c3n2)CC1 [Compound 102, 2-(1-((2-(2-cyclopropyl-1H-benzo[d]imidazol-1-yl)-4-morpholinopyrido[3,2-d]pyrimidin-6-yl)methyl)piperidin-4-yl)propan-2-ol] | 7.94 nM | 71
Cc1oc2ccccc2c1-c1nc(N2CCOCC2)c2nc(CN3CCC(C(C)(C)O)CC3)ccc2n1 [Compound 103, 2-(1-((2-(2-methylbenzofuran-3-yl)-4-morpholinopyrido[3,2-d]pyrimidin-6-yl)methyl)piperidin-4-yl)propan-2-ol] | 10.5 nM | 200
CCn1c(=O)c2ccccc2n1-c1nc(N2CCOCC2)c2nc(CN3CCC(C(C)(C)O)CC3)ccc2n1 [Compound 104, 2-ethyl-1-(6-((4-(2-hydroxypropan-2-yl)piperidin-1-yl)methyl)-4-morpholinopyrido[3,2-d]pyrimidin-2-yl)-1H-indazol-3(2H)-one] | 11.8 nM | 83
Cc1cc(Nc2nc(N3CCOCC3)c3nc(CN4CCC(C(C)(C)O)CC4)ccc3n2)n[nH]1 [Compound 106, 2-(1-((2-(5-methyl-1H-pyrazol-3-ylamino)-4-morpholinopyrido[3,2-d]pyrimidin-6-yl)methyl)piperidin-4-yl)propan-2-ol] | 66.9 nM | 31
CC(C)(O)C1CCN(Cc2ccc3nc(-c4cnc(N)nc4)nc(N4CCOCC4)c3n2)CC1 [Compound 107, 2-(1-((2-(2-aminopyrimidin-5-yl)-4-morpholinopyrido[3,2-d]pyrimidin-6-yl)methyl)piperidin-4-yl)propan-2-ol] | 2.57 nM | 5.4
OCc1ccc2nc(-c3c(F)ccc4[nH]ccc34)nc(N3CCOCC3)c2n1 [Compound 108, (2-(5-fluoro-1H-indol-4-yl)-4-morpholinopyrido[3,2-d]pyrimidin-6-yl)methanol] | 26.5 nM | 13.5
CC(C)(O)C1CCN(Cc2ccc3nc(-c4cccc5[nH]ccc45)nc(N4CCOCC4)c3n2)CC1 [Compound 109, 2-(1-((2-(1H-indol-4-yl)-4-morpholinopyrido[3,2-d]pyrimidin-6-yl)methyl)piperidin-4-yl)propan-2-ol] | 2.82 nM | >350
CC(C)(O)C1CCN(Cc2ccc3nc(-c4cccc5[nH]ncc45)nc(N4CCOCC4)c3n2)CC1 [Compound 110, 2-(1-((2-(1H-indazol-4-yl)-4-morpholinopyrido[3,2-d]pyrimidin-6-yl)methyl)piperidin-4-yl)propan-2-ol] | 6.32 nM | 21
Fc1ccc2[nH]ccc2c1-c1nc(N2CCOCC2)c2nc(CN3CC(C4CCOCC4)C3)ccc2n1 [Compound 111, 4-(2-(5-fluoro-1H-indol-4-yl)-6-((3-(tetrahydro-2H-pyran-4-yl)azetidin-1-yl)methyl)pyrido[3,2-d]pyrimidin-4-yl)morpholine] | 5.32 nM | 281
CC(C)c1nc2ccccc2n1-c1nc(N2CCOCC2)c2nc(CN3CC(C4CCOCC4)C3)ccc2n1 [Compound 113, 4-(2-(2-isopropyl-1H-benzo[d]imidazol-1-yl)-6-((3-(tetrahydro-2H-pyran-4-yl)azetidin-1-yl)methyl)pyrido[3,2-d]pyrimidin-4-yl)morpholine] | 8.52 nM | 28.4
CO[C@H](C)c1nc2ccccc2n1-c1nc(N2CCOCC2)c2nc(CN3CCC(C(C)(C)O)CC3)ccc2n1 [Compound 115, (R)-2-(1-((2-(2-(1-methoxyethyl)-1H-benzo[d]imidazol-1-yl)-4-morpholinopyrido[3,2-d]pyrimidin-6-yl)methyl)piperidin-4-yl)propan-2-ol] | 7.11 nM | 58
Cc1nc(N)ccc1-c1nc(N2CCOCC2)c2nc(CN3CCC(C(C)(C)O)CC3)ccc2n1 [Compound 116, 2-(1-((2-(6-amino-2-methylpyridin-3-yl)-4-morpholinopyrido[3,2-d]pyrimidin-6-yl)methyl)piperidin-4-yl)propan-2-ol] | 9.33 nM | 43
COC(=O)C(C)(C)N1CC(Cc2ccc3nc(-n4c(C(C)C)nc5ccccc54)nc(N4CCOCC4)c3n2)C1 [Compound 117, methyl 2-(3-((2-(2-isopropyl-1H-benzo[d]imidazol-1-yl)-4-morpholinopyrido[3,2-d]pyrimidin-6-yl)methyl)azetidin-1-yl)-2-methylpropanoate] | 5.09 nM | 37
CC(C)(O)C1CCN(C(=O)c2ccc3nc(-c4c(F)ccc5[nH]ccc45)nc(N4CCOCC4)c3n2)CC1 [Compound 118, (2-(5-fluoro-1H-indol-4-yl)-4-morpholinopyrido[3,2-d]pyrimidin-6-yl)(4-(2-hydroxypropan-2-yl)piperidin-1-yl)methanone] | 13 nM | 77
CC(C)c1nc2ccccc2n1-c1nc(N2CCOCC2)c2nc(C(=O)N3CCC(C(C)(C)O)CC3)ccc2n1 [Compound 119, (4-(2-hydroxypropan-2-yl)piperidin-1-yl)(2-(2-isopropyl-1H-benzo[d]imidazol-1-yl)-4-morpholinopyrido[3,2-d]pyrimidin-6-yl)methanone] | 87.8 nM | 15
CC(F)(F)c1nc2ccccc2n1-c1nc(N2CCOCC2)c2nc(CN3CCC(C(C)(C)O)CC3)ccc2n1 [Compound 120, 2-(1-((2-(2-(1,1-difluoroethyl)-1H-benzo[d]imidazol-1-yl)-4-morpholinopyrido[3,2-d]pyrimidin-6-yl)methyl)piperidin-4-yl)propan-2-ol] | 2.31 nM | 45
CC(C)(C(N)=O)N1CCN(Cc2ccc3nc(-c4c(F)ccc5[nH]ccc45)nc(N4CCOCC4)c3n2)CC1 [Compound 121, 2-(4-((2-(5-fluoro-1H-indol-4-yl)-4-morpholinopyrido[3,2-d]pyrimidin-6-yl)methyl)piperazin-1-yl)-2-methylpropanamide] | 1.29 nM | 203
CC(C)(O)C1CCN(Cc2ccc3nc(-c4ccc(N)nc4)nc(N4CCOCC4)c3n2)CC1 [Compound 122, 2-(1-((2-(6-aminopyridin-3-yl)-4-morpholinopyrido[3,2-d]pyrimidin-6-yl)methyl)piperidin-4-yl)propan-2-ol] | 5.42 nM | 15
CC(C)(C(N)=O)N1CCN(Cc2ccc3nc(-c4c[nH]c5ccccc45)nc(N4CCOCC4)c3n2)CC1 [Compound 123, 2-(4-((2-(1H-indol-3-yl)-4-morpholinopyrido[3,2-d]pyrimidin-6-yl)methyl)piperazin-1-yl)-2-methylpropanamide] | 4.48 nM | 55
CC(C)(C(N)=O)N1CCN(Cc2ccc3nc(-c4ccc(N)nc4)nc(N4CCOCC4)c3n2)CC1 [Compound 124, 2-(4-((2-(6-aminopyridin-3-yl)-4-morpholinopyrido[3,2-d]pyrimidin-6-yl)methyl)piperazin-1-yl)-2-methylpropanamide] | 2.03 nM | 14
Fc1ccc2[nH]ccc2c1-c1nc(N2CCOCC2)c2nc(CN3CC(N4CCC(F)(F)CC4)C3)ccc2n1 [Compound 125, 4-(6-((3-(4,4-difluoropiperidin-1-yl)azetidin-1-yl)methyl)-2-(5-fluoro-1H-indol-4-yl)pyrido[3,2-d]pyrimidin-4-yl)morpholine] | 1.52 nM | 246
Fc1ccc2[nH]ccc2c1-c1nc(N2CCOCC2)c2nc(CN3CC(N4CCOCC4)C3)ccc2n1 [Compound 126, 4-(1-((2-(5-fluoro-1H-indol-4-yl)-4-morpholinopyrido[3,2-d]pyrimidin-6-yl)methyl)azetidin-3-yl)morpholine] | 1.14 nM | 257
O=C1CN(C2CN(Cc3ccc4nc(-c5c(F)ccc6[nH]ccc56)nc(N5CCOCC5)c4n3)C2)CCN1 [Compound 127, 4-(1-((2-(5-fluoro-1H-indol-4-yl)-4-morpholinopyrido[3,2-d]pyrimidin-6-yl)methyl)azetidin-3-yl)piperazin-2-one] | 1.75 nM | 141
CC(C)(O)C1CCN(Cc2ccc3nc(-n4ccc5ccccc54)nc(N4CCOCC4)c3n2)CC1 [Compound 128, 2-(1-((2-(1H-indol-1-yl)-4-morpholinopyrido[3,2-d]pyrimidin-6-yl)methyl)piperidin-4-yl)propan-2-ol] | 81.9 nM | 26
